Experimental findings from patent US20170044372A1, “CELL TRACKING REAGENTS AND THEIR METHODS OF USE” (LIFE TECHNOLOGIIES CORPORATION, priority 2014, published 2017) are described below.

This data set concerns HeLa cells. In words: CYQUANT Direct cytotoxicity / cell viability assay. The format is cell-based. The following applies: 96 well plate, labeled at 10 μM for 30 mins at 37° C. in LCIS, assayed on days 1, 2 and 3, compared to DMSO alone. Here is the method:
FIG. 2: Lack of cytotoxicity of Compound 10, as measured by the CYQUANT Direct (Thermo Fisher Scientific) method. Fluorescence on the Y-axis is proportional to cell population viability. HeLa cells plated in a 96 well plate were labeled with CELLTRACKER Red, Compound 10, or DMSO in Live Cell Imaging Solution (LCIS) at 10 μM concentration for 30 mins at 37° C. The LCIS was then aspirated from cells and complete media added for an overnight incubation. The following day (Day 1) cells were assayed for cytotoxicity using the CYQUANT Direct assay (Thermo Fisher Scientific).
A549, HeLa and U-2 OS cells were plated in a 24-well plate at a concentration of 2000 cells/well. Compound 10 was added at a final concentration of 10 μM in Live Cell Imaging Solution (Life Technologies Corporation, Carlsbad, Calif.) and incubated for 30-60 min at 37° C. Cells were washed in dPBS and the cell media was added. Cells were scanned using the scan routine on an EVOS FL Auto microscope (Thermo Fisher Scientific) for 10% of the middle of the well. The same scan routine was used on Days 2, 3 and 4 of growth. Cell viability was assessed using CYQUANT Direct (Thermo Fisher Scientific) using the same scan routine as described above. The results in HeLa cells can be seen in FIGS. 1 and 2.

`CN(C)c1ccc2c(-c3ccc(C(=O)ON4C(=O)CCC4=O)cc3C(=O)O)c3ccc(=[N+](C)C)cc-3oc2c1` [Compound 10]: the “cytotoxicity as measured by the CYQUANT Direct method (fluorescence proportional to cell population viability)” value is given as “no cytotoxicity”.
